Assay results taken from patent US20250388553A1 (Incyte Corporation, priority 2018, published 2025).
Counter-ions that a name gives are not always drawn.

What was measured:
[1] = molecular target: PI3Kγ (p110γ) Recombinant Human Protein (Homo sapiens (Human), UniProt P48736); assay: PI3K-γ scintillation proximity assay; type: biochemical; conditions: scintillation proximity assay, recombinant human p110γ
From the text: Example B. PI3K-γ Scintillation Proximity Assay
(§1) Materials: [γ-^33P]ATP (10 mCi/mL) and Wheat Germ Agglutinin (WGA) YSi SPA Scintillation Beads was purchased from Perkin Elmer (Waltham, MA). Lipid kinase substrate, D-myo-Phosphatidylinositol 4,5-bisphosphate (PtdIns(4,5)P2)D (+)-sn-1,2-di-O-octanoylglyceryl, 3-O-phospho linked (PIP2), CAS 204858-53-7, was purchased from Echelon Biosciences (Salt Lake City, UT). PI3Kγ (p110γ) Recombinant Human Protein was purchased from Life technology (Grand Island, NY). ATP, MgCl2, DTT, EDTA, MOPS and CHAPS were purchased from Sigma Aldrich (St. Louis, MO).
(§2) The kinase reaction was conducted in polystyrene 384-well Greiner Bio-one white plate from Thermo Fisher Scientific in a final volume of 25 L. Inhibitors were first diluted serially in DMSO and added to the plate wells before the addition of other reaction components. The final concentration of DMSO in the assay was 2%. The PI3Kγ assay was carried out at room temperature in 20 mM MOPS, pH 6.7, 10 mM MgCl2, 5 mM DTT and CHAPS 0.03%. Reactions were initiated by the addition of ATP, the final reaction mixture consisted of 20 µM […], 0.5 μCi [γ-^33P]ATP, 13 nM PI3Kγ. Reactions were incubated for 120 min and terminated by the addition of 40 μL SPA beads suspended in quench buffer: 163 mM potassium phosphate pH 7.8, 20% glycerol, 25 mM EDTA. The final concentration of SPA beads is 1.0 mg/mL. After the plate sealing, plates were shaken overnight at room temperature and centrifuged at 1500 rpm for 10 min, the radioactivity of the product was determined by scintillation counting on Topcount (Perkin-Elmer). IC50 determination was performed by fitting the curve of percent of the solvent control activity versus the log of the inhibitor concentration using the GraphPad Prism 6.0 software.
(§3) The compounds of the Examples were tested in the assays described in Examples A, B and C and found to have the IC50s are shown in Tables A1, A2, A3 and A4.

[2] = molecular target: PI3Kδ (p1106/p85a) Recombinant Human Protein (Homo sapiens (Human), UniProt O00329); assay: PI3Kδ scintillation proximity assay; type: biochemical; conditions: scintillation proximity assay, recombinant human PI3Kδ
PI3Kδ (p1106/p85a) Recombinant Human Protein, sequence (O00329 whole entry): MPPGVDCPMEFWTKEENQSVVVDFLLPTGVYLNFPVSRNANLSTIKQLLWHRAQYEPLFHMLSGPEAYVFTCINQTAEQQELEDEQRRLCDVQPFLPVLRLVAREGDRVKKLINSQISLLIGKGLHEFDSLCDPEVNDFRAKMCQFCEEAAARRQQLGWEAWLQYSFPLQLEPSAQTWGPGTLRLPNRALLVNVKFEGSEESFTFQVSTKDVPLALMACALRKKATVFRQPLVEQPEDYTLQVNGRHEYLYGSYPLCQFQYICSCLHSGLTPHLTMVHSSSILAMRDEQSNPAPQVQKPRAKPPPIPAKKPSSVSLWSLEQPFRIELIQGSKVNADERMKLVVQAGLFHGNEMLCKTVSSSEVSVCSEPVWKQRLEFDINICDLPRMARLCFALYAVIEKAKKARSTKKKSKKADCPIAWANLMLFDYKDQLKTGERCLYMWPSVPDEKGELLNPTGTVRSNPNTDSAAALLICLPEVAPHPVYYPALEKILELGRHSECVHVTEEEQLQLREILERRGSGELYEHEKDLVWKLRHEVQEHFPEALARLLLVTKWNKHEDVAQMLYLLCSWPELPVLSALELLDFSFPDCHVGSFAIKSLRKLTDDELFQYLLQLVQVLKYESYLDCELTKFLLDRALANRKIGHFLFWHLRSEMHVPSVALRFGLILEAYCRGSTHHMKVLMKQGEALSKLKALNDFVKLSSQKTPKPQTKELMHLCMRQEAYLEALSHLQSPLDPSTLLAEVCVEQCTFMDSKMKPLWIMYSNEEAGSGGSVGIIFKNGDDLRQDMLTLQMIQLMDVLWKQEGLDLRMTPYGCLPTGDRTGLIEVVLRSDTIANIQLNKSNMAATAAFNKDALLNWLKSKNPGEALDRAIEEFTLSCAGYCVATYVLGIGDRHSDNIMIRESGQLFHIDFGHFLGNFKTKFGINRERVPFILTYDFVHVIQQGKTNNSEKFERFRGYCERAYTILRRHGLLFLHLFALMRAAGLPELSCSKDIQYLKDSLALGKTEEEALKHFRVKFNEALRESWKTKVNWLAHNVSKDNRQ
PI3Kδ (p1106/p85a) Recombinant Human Protein, sequence (P27986 whole entry partner): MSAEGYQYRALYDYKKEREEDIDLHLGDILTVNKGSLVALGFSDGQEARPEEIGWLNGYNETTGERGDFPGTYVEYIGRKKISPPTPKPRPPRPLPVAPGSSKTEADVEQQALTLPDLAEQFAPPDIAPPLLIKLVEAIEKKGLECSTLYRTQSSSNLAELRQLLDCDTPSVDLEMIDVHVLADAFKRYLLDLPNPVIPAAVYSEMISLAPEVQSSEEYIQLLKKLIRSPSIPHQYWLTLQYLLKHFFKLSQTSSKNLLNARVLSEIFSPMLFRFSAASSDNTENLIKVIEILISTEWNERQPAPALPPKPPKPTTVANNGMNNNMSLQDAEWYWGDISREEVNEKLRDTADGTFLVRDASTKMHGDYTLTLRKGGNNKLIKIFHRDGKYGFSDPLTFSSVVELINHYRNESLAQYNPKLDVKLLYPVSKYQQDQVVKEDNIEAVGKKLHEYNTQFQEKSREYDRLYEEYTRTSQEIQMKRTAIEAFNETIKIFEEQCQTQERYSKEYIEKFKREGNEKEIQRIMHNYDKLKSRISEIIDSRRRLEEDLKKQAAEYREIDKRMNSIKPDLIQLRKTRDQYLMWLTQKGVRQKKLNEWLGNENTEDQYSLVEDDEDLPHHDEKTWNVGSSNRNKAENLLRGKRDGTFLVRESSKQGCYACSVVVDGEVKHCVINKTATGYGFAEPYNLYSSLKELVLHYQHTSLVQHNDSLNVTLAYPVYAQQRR
From the text: Example C. PI3Kδ Scintillation Proximity Assay
as §1, with “PI3Kδ (p1106/p85a)” for “PI3Kγ (p110γ)”, “Eurofins (St Charles, MO).” for “Life technology (Grand Island, NY).”
as §2, with “25 μL.” for “25 L.”, “The PI3Kδ” for “The PI3Kγ”, “[γ-^33P]ATP, 3.4” for “[γ-^33P]ATP, 13”, “nM PI3Kδ.” for “nM PI3Kγ.”, “Topcount (PerkinElmer).” for “Topcount (Perkin-Elmer).”
as §3

PI3Kγ (p110γ) Recombinant Human Protein, sequence (P48736 whole entry): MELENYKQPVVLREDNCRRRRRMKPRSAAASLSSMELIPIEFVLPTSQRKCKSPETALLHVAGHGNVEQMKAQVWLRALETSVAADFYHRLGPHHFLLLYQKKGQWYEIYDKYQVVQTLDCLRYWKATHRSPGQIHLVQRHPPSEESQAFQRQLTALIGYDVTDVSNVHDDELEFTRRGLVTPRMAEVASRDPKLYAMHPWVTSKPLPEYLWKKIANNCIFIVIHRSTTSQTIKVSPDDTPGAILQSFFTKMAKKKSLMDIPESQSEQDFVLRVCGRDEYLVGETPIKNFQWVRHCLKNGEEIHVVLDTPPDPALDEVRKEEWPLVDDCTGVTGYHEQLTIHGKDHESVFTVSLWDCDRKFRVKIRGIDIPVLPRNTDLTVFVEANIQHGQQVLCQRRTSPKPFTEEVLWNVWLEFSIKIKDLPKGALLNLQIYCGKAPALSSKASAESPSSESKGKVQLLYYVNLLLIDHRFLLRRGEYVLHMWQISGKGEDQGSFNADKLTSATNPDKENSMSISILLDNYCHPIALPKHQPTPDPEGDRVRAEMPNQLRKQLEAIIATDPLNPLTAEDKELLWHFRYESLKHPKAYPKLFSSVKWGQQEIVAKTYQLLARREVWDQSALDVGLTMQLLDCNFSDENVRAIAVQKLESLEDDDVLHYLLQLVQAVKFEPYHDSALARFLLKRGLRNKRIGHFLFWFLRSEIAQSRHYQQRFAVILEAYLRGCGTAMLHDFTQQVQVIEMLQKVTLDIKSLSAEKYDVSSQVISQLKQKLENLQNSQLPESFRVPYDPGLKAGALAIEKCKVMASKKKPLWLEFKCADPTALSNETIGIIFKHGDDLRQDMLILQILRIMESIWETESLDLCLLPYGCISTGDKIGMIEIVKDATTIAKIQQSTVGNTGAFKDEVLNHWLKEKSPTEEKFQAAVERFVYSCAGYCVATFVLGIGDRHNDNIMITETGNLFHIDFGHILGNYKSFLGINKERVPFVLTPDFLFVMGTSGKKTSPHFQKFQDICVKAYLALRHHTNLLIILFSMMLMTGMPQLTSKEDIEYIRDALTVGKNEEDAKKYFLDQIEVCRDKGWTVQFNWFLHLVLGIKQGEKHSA

Structure (SMILES)	IC50 ([1]; Table A1) [nM]	IC50 ([2]; Table A1) [nM]	IC50 ([1]; Table A2) [nM]	IC50 ([2]; Table A2) [nM]
COC(C)(C)CNC(=O)c1nc(-c2cc(C(O)(C(N)=O)C(F)(F)F)ccc2C)cnc1N (stereo not shown) [Example 21, 3-amino-6-(5-(3-amino-1,1,1-trifluoro-2-hydroxy-3-oxopropan-2-yl)-2-methylphenyl)-N-(2-methoxy-2-methylpropyl)pyrazine-2-carboxamide trifluoroacetate]	< 100	< 100		
Cc1ccc(C(O)(C(N)=O)C(F)(F)F)cc1-c1cnc(N)c(C(=O)NC23CC(C#N)(C2)C3)n1 (stereo not shown) [Example 23, 3-amino-6-(5-(3-amino-1,1,1-trifluoro-2-hydroxy-3-oxopropan-2-yl)-2-methylphenyl)-N-(3-cyanobicyclo[1.1.1]pentan-1-yl)pyrazine-2-carboxamide trifluoroacetate]	< 100	< 100		
Cc1ccc(C(O)(C(N)=O)C(F)(F)F)cc1-c1cnc(N)c(C(=O)NC23CCC(C#N)(C2)C3)n1 (stereo not shown) [Example 24, 3-amino-6-(5-(3-amino-1,1,1-trifluoro-2-hydroxy-3-oxopropan-2-yl)-2-methylphenyl)-N-(4-cyanobicyclo[2.1.1]hexan-1-yl)pyrazine-2-carboxamide trifluoroacetate]	< 100	< 100		
Cc1ccc(C(O)(C(N)=O)C(F)(F)F)cc1-c1cnc(N)c(C(=O)NC23CCC(C#N)(CC2)CC3)n1 (stereo not shown) [Example 25, 3-amino-6-(5-(3-amino-1,1,1-trifluoro-2-hydroxy-3-oxopropan-2-yl)-2-methylphenyl)-N-(4-cyanobicyclo[2.2.2]octan-1-yl)pyrazine-2-carboxamide trifluoroacetate]	< 100	< 100		
Cc1ccc(C(O)(C(N)=O)C(F)(F)F)cc1-c1cnc(N)c(C(=O)N2CCC2(C)C)n1 (stereo not shown) [Example 27, 2-(3-(5-amino-6-(2,2-dimethylazetidine-1-carbonyl)pyrazin-2-yl)-4-methylphenyl)-3,3,3-trifluoro-2-hydroxypropanamide]	< 100	< 100		
Cc1ccc(C(O)(C(N)=O)C(F)(F)F)cc1-c1cnc(N)c(C(=O)N2CCc3cccnc32)n1 (stereo not shown) [Example 28, 2-(3-(5-amino-6-(2,3-dihydro-1H-pyrrolo[2,3-b]pyridine-1-carbonyl)pyrazin-2-yl)-4-methylphenyl)-3,3,3-trifluoro-2-hydroxypropanamide]	< 100	100 to 500		
CCNC(=O)c1nc(-c2cc(C(O)(C(N)=O)C(F)F)ccc2C)cnc1N (stereo not shown) [Example 32, 3-amino-6-(5-(1-amino-3,3-difluoro-2-hydroxy-1-oxopropan-2-yl)-2-methylphenyl)-N-ethylpyrazine-2-carboxamide]	< 100	< 100		
Cc1ccc(C(O)(C(N)=O)C(F)F)cc1-c1cnc(N)c(C(=O)NCC2(C#N)CC2)n1 (stereo not shown) [Example 33, 3-amino-6-(5-(1-amino-3,3-difluoro-2-hydroxy-1-oxopropan-2-yl)-2-methylphenyl)-N-((1-cyanocyclopropyl)methyl)pyrazine-2-carboxamide]	< 100	< 100		
Cc1ccc(C(O)(C(N)=O)C(F)F)cc1-c1cnc(N)c(C(=O)NC2CCC(F)(F)CC2)n1 (stereo not shown) [Example 34, 3-amino-6-(5-(1-amino-3,3-difluoro-2-hydroxy-1-oxopropan-2-yl)-2-methylphenyl)-N-(4,4-difluorocyclohexyl)pyrazine-2-carboxamide]	< 100	< 100		
Cc1ccc(C(O)(C(N)=O)C(F)F)cc1-c1cnc(N)c(C(=O)NC(C)(C)CO)n1 (stereo not shown) [Example 35, 3-amino-6-(5-(1-amino-3,3-difluoro-2-hydroxy-1-oxopropan-2-yl)-2-methylphenyl)-N-(1-hydroxy-2-methylpropan-2-yl)pyrazine-2-carboxamide]	< 100	< 100		
Cc1ccc(C(O)(C(N)=O)C(F)F)cc1-c1cnc(N)c(C(=O)NC2CCOCC2)n1 (stereo not shown) [Example 36, 3-amino-6-(5-(1-amino-3,3-difluoro-2-hydroxy-1-oxopropan-2-yl)-2-methylphenyl)-N-(tetrahydro-2H-pyran-4-yl)pyrazine-2-carboxamide]	< 100	< 100		
Cc1ccc(C(O)(C(N)=O)C(F)F)cc1-c1cnc(N)c(C(=O)NCCC2CCOC2)n1 (stereo not shown) [Example 37, 3-amino-6-(5-(1-amino-3,3-difluoro-2-hydroxy-1-oxopropan-2-yl)-2-methylphenyl)-N-(2-(tetrahydrofuran-3-yl)ethyl)pyrazine-2-carboxamide]	< 100	< 100		
Cc1ccc(C(O)(C(N)=O)C(F)(F)F)cc1-c1cnc(N)c(C(=O)NCC(F)(F)F)n1 (stereo not shown) [Example 38, 3-Amino-6-(5-(3-amino-1,1,1-trifluoro-2-hydroxy-3-oxopropan-2-yl)-2-methylphenyl)-N-(2,2,2-trifluoroethyl)pyrazine-2-carboxamide trifluoroacetate]	< 100	< 100		
Cc1ccc(C(O)(CNC(=O)C(C)(C)O)C(F)(F)F)cc1-c1cnc(N)c(C(=O)NC(C)C)n1 (stereo not shown) [Example 41, 3-Amino-N-isopropyl-6-(2-methyl-5-(1,1,1-trifluoro-2-hydroxy-3-(2-hydroxy-2-methylpropanamido)propan-2-yl)phenyl)pyrazine-2-carboxamide trifluoroacetate]	< 100	100 to 500		
C/C=C\c1nc(-c2cc(C(O)(C(N)=O)C(F)(F)F)ccc2C)cnc1N (stereo not shown) [Example 44, (Z)-2-(3-(5-amino-6-(prop-1-en-1-yl)pyrazin-2-yl)-4-methylphenyl)-3,3,3-trifluoro-2-hydroxypropanamide]			< 100	100 to 500
Cc1ccc(C(O)(C(N)=O)C(F)(F)F)cc1-c1cnc(N)c(C(F)(F)F)n1 (stereo not shown) [Example 46, 2-(3-(5-Amino-6-(trifluoromethyl)pyrazin-2-yl)-4-methylphenyl)-3,3,3-trifluoro-2-hydroxypropanamide trifluoroacetate]			< 100	100 to 500
COCC#Cc1nc(-c2cc(C(O)(C(N)=O)C(F)(F)F)ccc2C)cnc1N (stereo not shown) [Example 47, 2-(3-(5-amino-6-(3-methoxyprop-1-ynyl)pyrazin-2-yl)-4-methylphenyl)-3,3,3-trifluoro-2-hydroxypropanamide trifluoroacetate]			< 100	< 100
Cc1ccc(C(O)(C(N)=O)C(F)(F)F)cc1-c1cnc(N)c(C#CC2CC2)n1 (stereo not shown) [Example 48, 2-(3-(5-amino-6-(cyclopropylethynyl)pyrazin-2-yl)-4-methylphenyl)-3,3,3-trifluoro-2-hydroxypropanamide]			< 100	< 100
Cc1ccc(C(O)(C(N)=O)C(F)(F)F)cc1-c1cnc(N)c(C#CC(C)(C)O)n1 (stereo not shown) [Example 50, 2-(3-(5-amino-6-(3-hydroxy-3-methylbut-1-ynyl)pyrazin-2-yl)-4-methylphenyl)-3,3,3-trifluoro-2-hydroxypropanamide]			< 100	< 100
Cc1ccc(C(O)(C(N)=O)C(F)(F)F)cc1-c1cnc(N)c(C#CCC(C)O)n1 (stereo not shown) [Example 51, 2-(3-(5-amino-6-(4-hydroxypent-1-ynyl)pyrazin-2-yl)-4-methylphenyl)-3,3,3-trifluoro-2-hydroxypropanamide]			< 100	< 100
